From patent US8877684B2, “Pesticidal composition comprising a synthetic compound useful as nodulation agent of leguminous plants and an insecticide compound” (Bayer CropScience AG, priority 2006, dated 2014)

Experiments:
Myzus persicae = Myzus persicae test: cabbage leaves infested with green peach aphid dipped into the preparation; assay type: in vivo; conditions: foliar, 96 h, leaf dip, after 4 d
Experimental: (§1) The expected efficacy of a given combination of two compounds is calculated as follows (see Colby, S. R., “Calculating Synergistic and antagonistic Responses of Herbicide Combinations”, Weeds 15, pp. 20-22, 1967):
(§2) • X is the efficacy expressed in % mortality of the untreated control for test compound A at a concentration of m ppm respectively m g/ha; • Y is the efficacy expressed in % mortality of the untreated control for test compound B at a concentration of n ppm respectively n g/ha; • E is the efficacy expressed in % mortality of the untreated control using the mixture of A and B at m and n ppm respectively m and n g/ha; then is
(§3) If the observed insecticidal efficacy of the combination is higher than the one calculated as “E”, then the combination of the two compounds is more than additive, i.e., there is a synergistic effect.
To produce a suitable preparation of active compound, 1 part by weight of active compound is mixed with the stated amount of solvent and emulsifier, and the concentrate is diluted with emulsifier-containing water to the desired concentration. Cabbage leaves (Brassica oleracea) which are heavily infested by the green peach aphid (Myzus persicae) are treated by being dipped into the preparation of the active compound of the desired concentration.
(§4) After the specified period of time, the mortality in % is determined. […]

Phaedon cochleariae = Phaedon cochleariae test: dipped cabbage leaves infested with mustard beetle larvae; assay type: in vivo; conditions: foliar, 96 h, leaf dip, after 4 d
Experimental: as §1, §2, §3
To produce a suitable preparation of active compound, 1 part by weight of active compound is mixed with the stated amount of solvent and emulsifier, and the concentrate is diluted with emulsifier-containing water to the desired concentration. Cabbage leaves (Brassica oleracea) are treated by being dipped into the preparation of the active compound of the desired concentration and are infested with larvae of the mustard beetle (Phaedon cochleariae) as long as the leaves are still moist.
as §4

Q: Which mortality at 0.16 ppm (Myzus persicae) does the source give for O=[N+]([O-])NC1=NCCN1Cc1ccc(Cl)nc1 [Imidacloprid] here?
A: 10%

Q: And the mortality at 20 ppm (Phaedon cochleariae)?
A: 70%
